The results in this text go back to ChEMBL document CHEMBL1201862, “PubChem BioAssay data set” (2004).

Some test systems named below: MOLT-4; TK-10; IGROV-1; SF-295; T47D; MDA-N; UACC-257; DU-145; SW-620; SNB-75; OVCAR-5; A498; MCF7; SNB-19; OVCAR-8; SK-MEL-28; RPMI-8226; LOX IMVI; COLO 205; MDA-MB-231.
Holding throughout (test): NCI tumour cell line growth inhibition, 48 h

SMILES strings stand for the structures.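 Compound exposure: 48 hours, 5 concentrations, 96-well plates. GI50 is the concentration that inhibits growth by half.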 Active and inactive are the calls of the source. No stated cut-off is given here; in the data, active = GI50 up to about 1.1 µM and inactive = higher.

Turning to `N/C(=N\n1c(=S)[nH]c2ccccc2c1=O)Nn1c(=S)[nH]c2ccccc2c1=O`, the GI50 is 11.4 µM (inactive) in the assay on MOLT-4; > 100 µM (inactive) in the assay on TK-10; 28.9 µM (inactive) in the assay on IGROV-1; > 100 µM (inactive) in the assay with SF-295; 23.4 µM (inactive) in the assay with T47D; 24.7 µM (inactive) in the assay on MDA-N. Further, the GI50 is > 100 µM (inactive) with UACC-257; > 100 µM (inactive) with DU-145; 18.9 µM (inactive) in the assay on SW-620; 25.1 µM (inactive) in the assay with SNB-75; 80.4 µM (inactive) in the assay on OVCAR-5; > 100 µM (inactive) with A498. Besides, the GI50 in the assay with MCF7 was 33.7 µM (inactive); with SNB-19 it was 88.3 µM (inactive); with OVCAR-8, 28.8 µM (inactive); with SK-MEL-28, 28.2 µM (inactive); with RPMI-8226, 22.4 µM (inactive); in the assay with LOX IMVI, 18.8 µM (inactive). In addition, the results for the GI50 with COLO 205 and with MDA-MB-231 were 28.8 µM (inactive) and 53.3 µM (inactive), respectively.
Regarding `COc1ccc([N+](=O)[O-])c2c(NCCCN(C)C)c3ccccc3nc12`, the GI50 was 0.0326 µM (active) in the assay on MOLT-4; 0.399 µM (active) in the assay on TK-10; 0.05 µM (active) with IGROV-1; 0.107 µM (active) in the assay with SF-295; 0.2 µM (active) with T47D; 0.425 µM (active) in the assay with MDA-N. The GI50 in the assay with UACC-257 was 0.23 µM (active); in the assay on DU-145 it was 0.126 µM (active); in the assay with SW-620 it was 0.0929 µM (active); with SNB-75, 0.222 µM (active); with OVCAR-5, 0.272 µM (active); in the assay with A498 it was 0.0204 µM (active). Further, the GI50 is 0.0155 µM (active) with MCF7; 0.202 µM (active) in the assay on SNB-19; 0.288 µM (active) in the assay on OVCAR-8; 3 µM (inactive) in the assay on SK-MEL-28; 0.218 µM (active) with RPMI-8226; 0.461 µM (active) in the assay on LOX IMVI. Besides, the GI50 in the assay with COLO 205 is 0.0953 µM (active); in the assay with MDA-MB-231 it was 0.466 µM (active).
Turning to `O=[N+]([O-])c1ccc2c3ccccc3[s+]([O-])c2c1` (stereo not given), the GI50 in the assay on MOLT-4, in the assay on TK-10, in the assay with IGROV-1, in the assay with SF-295, in the assay on T47D and in the assay on MDA-N was > 100 µM (inactive) each time. The GI50 is > 100 µM (inactive) with UACC-257; > 100 µM (inactive) with DU-145; 72.4 µM (inactive) with SW-620; > 100 µM (inactive) in the assay on SNB-75; > 100 µM (inactive) in the assay with OVCAR-5; > 100 µM (inactive) in the assay with A498. Also, the GI50 in the assay with MCF7 was 74 µM (inactive); with SNB-19, > 100 µM (inactive); in the assay on OVCAR-8, > 100 µM (inactive); in the assay with SK-MEL-28 it was > 100 µM (inactive); in the assay with RPMI-8226 it was > 100 µM (inactive); with LOX IMVI it was > 100 µM (inactive). The GI50 in the assay on COLO 205 was 63.7 µM (inactive); with MDA-MB-231 it was > 100 µM (inactive).
As to `COc1ccc(C[C@@H]2OC3(C=CC(=O)C=C3)O[C@H]2Cc2ccc(OC)cc2)cc1`, the GI50 in the assay on MOLT-4 was 0.173 µM (active); in the assay with TK-10, 0.281 µM (active); in the assay on IGROV-1 it was 0.317 µM (active); with SF-295 it was 2.99 µM (inactive); in the assay with T47D, 0.291 µM (active); in the assay with MDA-N it was 0.476 µM (active). Further, the GI50 in the assay on UACC-257 is 1.46 µM (inactive); with DU-145, 1.48 µM (inactive); in the assay on SW-620, 0.114 µM (active); in the assay with SNB-75 it was 1.68 µM (inactive); with OVCAR-5 it was 0.832 µM (active); in the assay on A498, 5.53 µM (inactive). The GI50 was 0.558 µM (active) in the assay on MCF7; 1.82 µM (inactive) in the assay with SNB-19; 0.193 µM (active) in the assay on OVCAR-8; 1.71 µM (inactive) with SK-MEL-28; 0.202 µM (active) with RPMI-8226; 0.172 µM (active) in the assay on LOX IMVI. The GI50 with COLO 205 is 1.43 µM (inactive); in the assay on MDA-MB-231, 1.39 µM (inactive).
